Results from article PMC7648750, “In vitro and in vivo BNCT investigations using a carborane containing sulfonamide targeting CAIX epitopes on malignant pleural mesothelioma and breast cancer cells” (Scientific Reports, 2020).

Columns and labels:
[1] = system: AB22 cells; test: BNCT in vitro: viable cells 24 h after neutron irradiation (trypan blue); assay type: cell-based, mouse; settings: AB22, 130 µM 24 h, thermal neutrons 15 min 30 kW, 24 h after irradiation
Procedure: 75 flasks of MCF7 (4 flasks), ZL34 (4 flasks) and AB22 (4 flasks) were seeded at a density of 1.8 × 10^6 cells, 1.2 × 10^6 cells and 5.5 × 10^5 cells, respectively. 24 h later for MCF7 and ZL34 and 72 h later for AB22, 2 flasks of each cell lines were incubated for 24 h in the presence of 72 µM, 187.5 µM and 130 µM of CA-SF, respectively. After the incubation, cells were washed with PBS and their medium was renewed. Two flasks of MCF7, ZL34 and AB22 cells incubated with CA-SF and two flasks containing non-treated control cells were irradiated for 15′ at 30 kW reactor power in the thermal column of the TRIGA Mark II reactor at the University of Pavia, Italy. At the end of the irradiation, the medium was removed, it was replaced with fresh medium and flasks were placed at 37 °C in a humidified atmosphere of 5% CO2.
The proliferation assay was carried out following the same procedure reported in reference 32. The day after irradiation cells were detached with 0.05% trypsin and 0.02% EDTA and the trypan blue exclusion test of cell viability was performed. Cell viability was reported as percentage of cells observed in treated a/o irradiated samples relative to that observed in control cells.

[2] = system: ZL34 cells; test: Cell uptake of boron (ICP-MS); assay type: cell-based, human; settings: ZL34, 187.5 µM CA-SF in culture medium, 24 h, 37 °C
Procedure: (§1) For the in vitro uptake experiments, 6 × 10^5 MCF7, 4.5 × 10^5 ZL34 and 2 × 10^5 AB22 were seeded in 6 cm of diameter dishes. After 24 h for MCF7 and ZL34 and after 72 h for AB22, the cells were incubated for 24 h with increasing concentration of CA-SF. All the incubations were performed in condition of normoxia at 37 °C, 5% CO2. At the end of the incubation, cells were washed three times with 3 ml ice-cold PBS and detached with 0.05% trypsin and 0.02% EDTA. Finally, all cell samples were transferred in falcon tubes and sonicated at 30% of power for 30 s in ice. The boron content of each cell sample lysates was determined by ICP-MS technique (see below). The milligrams of proteins, proportional to the number of cells, of each cell sample lysate, was evaluated by the Bradford assay (Biorad) using bovine serum albumin as a standard.
(§2) Boron content from cell samples, mice organs, plasma and tumours were determined using inductively coupled plasma mass spectrometry (ICP-MS) (Element-2; Thermo-Finnigan, Rodano (MI), Italy).
(§3) Sample digestion was performed using a high performance Microwave Digestion System (ETHOS UP Milestone, Bergamo, Italy) after the addition of concentrated HNO3 (70%) to cell lysates (1:1), in a final volume of 0.4 mL. […] The amounts of boron µg /g tissue were thus calculated considering that 1 g of tissue contains 1 × 10^9 cells.

[3] = system: MCF7 cells; test: Cell uptake of boron (ICP-MS); assay type: cell-based, human; settings: MCF7, 72 µM CA-SF in culture medium, 24 h, 37 °C
Procedure: as §1, §2, §3

[4] = system: AB22 cells; test: Cell uptake of boron (ICP-MS); assay type: cell-based, mouse; settings: AB22, 130 µM CA-SF in culture medium, 24 h, 37 °C
Procedure: as §1, §2, §3

[5] = system: ZL34 cells; test: MTT cell vitality assay; assay type: cell-based, human; settings: normoxia
Procedure: (§4) The MTT assay is based on the reduction in the mitochondria of metabolically active cells by succinate dehydrogenase obtaining a precipitation of purple formazan crystal. The assay was carried out using the same protocol reported by Azzi et al[42]. Briefly, AB22, ZL34 and MCF7 cells were seeded at a density of 7 × 10^3, 5 × 10^3 and 1 × 10^4 cells per well, respectively, in a 96-well microtiter plate. After 24 h at 37 °C and 5% CO2, they were incubated with increasing concentration of CA-SF or AZ for 24 h in a condition of normoxia at 37 °C and 5% CO2 by adding stock solutions in dimethyl sulfoxide (DMSO). In all the conditions the concentration of DMSO during the cell incubation was maintained under 0.25% (v/v) in cell medium. After the incubation, the medium was removed and each well was incubated with thiazolyl blue tetrazolium bromide (Sigma) dissolved in the medium at a concentration of 0.45 mg/mL for 4 h at 37 °C and 5% CO2. Then, after medium elimination, 150 µL of DMSO were added into each well to solubilise the formazan salt crystals produced by the metabolism of live cells and the microplate was incubated at room temperature (RT) for 30 min. Finally, absorbance was measured at 570 nm using an iMark microplate reader (Biorad). Cell vitality was reported as the percentage of […] cells observed in the treated samples relative to that observed in the non-treated control cells.

[6] = system: MCF7 cells; test: MTT cell vitality assay; assay type: cell-based, human; settings: normoxia
Procedure: as §4

- boron loaded into the target cells [2]: 90 µg/g
- boron loaded into the target cells [3]: 60 µg/g
- boron loaded into the target cells [4]: 160 µg/g
Substance: 1-Sulfonamidomethyl-o-carborane [CA-SF]
- viability of CA-SF treated and irradiated cells vs CA-SF treated cells [1]: significantly reduced
- cell vitality measured by MTT ([5]; ZL34, 187.5 µM CA-SF, 24 h, 37 °C): about 80%
- percentage of viable cells with increasing concentration (MTT) ([5]; ZL34, 24 h, Fig. 3): steadily decreases
- cell vitality measured by MTT ([6]; MCF7, 72 µM CA-SF, 24 h, 37 °C): about 80%
- percentage of viable cells with increasing concentration (MTT) ([6]; MCF7, 24 h, Fig. 3): steadily decreases
